Experimental data taken from US8933024B2, “Azolopyridin-3-one derivatives as inhibitors of lipases and phospholipases” (Sanofi, priority 2010, dated 2015).

Target: endothelial lipase (EL) (Homo sapiens (Human), UniProt Q9Y5X9)
Test: Test for inhibition of EL (assay for EL activity)
Assay type: biochemical
Conditions: phospholipase-specific Bodipy phosphocholine substrate; 37° C. for 90 minutes; enzyme from conditioned medium of recombinant cell lines (CHO, HEK293)
Text: Test for inhibition of EL:
EL is released as a secretory protein by recombinant cell lines (CHO, HEK293) in high concentration into cell culture medium (conditioned medium). This was used as an enzyme solution after concentration.
For characterization of the enzymatic activity of endothelial lipase and the effect of inhibitors, the phospholipase-specific substrate 1,2-bis(4,4-difluoro-5,7-dimethyl-4-bora-3a,4a-diaza-s-indacene-3-undecanoyl)-sn-glycero-3-phosphocholine (manufacturer: Molecular Probes) was used. Hydrolysis of the A1 ester bond of this phospholipid by the enzyme releases the fluorescent dye Bodipy, which can be detected by measuring the fluorescence after separation by thin-layer chromatography on an HPTLC plate (silica gel 60, Merck) or directly in the reaction vessel. To prepare the substrate solution, 100 μg of 1,2-bis(4,4-difluoro-5,7-dimethyl-4-bora-3a,4a-diaza-s-indacene-3-undecanoyl)-sn-glycero-3-phosphocholine (manufacturer: Molecular Probes) were dissolved in 100 μl of DMSO and taken up in 2.4 mg of tripalmitin (Sigma) in 393 μl of chloroform which contained 20 mg/ml DOP—choline (1,2-dioleoyl-sn-glycero-3-phosphocholine). 39.3 μl of this lipid mixture were transferred into a fresh reaction vessel and the solvent was evaporated off. The lipid mixture was dissolved by sonicating twice in 4 ml of 200 mM TRIS-HCl, 150 mM sodium chloride, pH=7.4. The subsequent enzyme reaction was effected at 37° C. for 90 minutes. For this purpose, 20 μl of the substrate solution were incubated with 2 μl of inhibitor of appropriate concentration (dissolved in 10% DMSO; 10% DMSO solution was used as a control) and 2 μl of enzyme solution (conditioned medium). Thereafter, 4 μl of the test mixture were applied to an HPTLC plate (silica gel 60, Merck) and the fluorescent dye released was separated for detection with an eluent (diethyl ether:petroleum:acetic acid [78:22:1]). After the eluent had been evaporated off, the plate was read in a fluorescence scanner.

Sequence of endothelial lipase (EL) (Q9Y5X9 21-500): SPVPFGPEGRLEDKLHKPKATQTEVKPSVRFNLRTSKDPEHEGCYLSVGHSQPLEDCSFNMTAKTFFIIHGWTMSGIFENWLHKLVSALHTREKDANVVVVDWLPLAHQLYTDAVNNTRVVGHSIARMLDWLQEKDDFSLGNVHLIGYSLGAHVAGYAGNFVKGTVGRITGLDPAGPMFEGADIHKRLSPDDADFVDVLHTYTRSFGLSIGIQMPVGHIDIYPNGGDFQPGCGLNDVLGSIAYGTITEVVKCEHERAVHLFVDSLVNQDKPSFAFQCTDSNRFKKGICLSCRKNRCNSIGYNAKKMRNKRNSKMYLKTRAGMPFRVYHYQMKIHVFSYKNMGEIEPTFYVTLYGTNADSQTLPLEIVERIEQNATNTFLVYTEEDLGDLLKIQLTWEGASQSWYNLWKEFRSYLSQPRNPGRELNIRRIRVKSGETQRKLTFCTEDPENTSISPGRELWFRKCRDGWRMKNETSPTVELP

Row | SMILES | IC50 [nM]
1 | COc1cc(CNC(=O)n2sc3ncccc3c2=O)cc(OC)c1OC [Example 3, 3-Oxo-3H-isothiazolo[5,4-b]pyridine-2-carboxylic acid 3,4,5-trimethoxy-benzylamide] | 926
2 | COc1cc(C(C)NC(=O)n2sc3ncccc3c2=O)cc(OC)c1OC (stereo not drawn) [Example 4, 3-Oxo-3H-isothiazolo[5,4-b]pyridine-2-carboxylic acid [1-(3,4,5-trimeth-oxy-phenyl)-ethyl]-amide] | 40
3 | CC(NC(=O)n1sc2ncccc2c1=O)c1ccc2c(c1)OCCO2 (stereo not drawn) [Example 5, 3-Oxo-3H-isothiazolo[5,4-b]pyridine-2-carboxylic acid [1-(2,3-dihydro-benzo[1,4]dioxin-6-yl)-ethyl]-amide] | 200
4 | COc1ccc(OC)c(CNC(=O)n2sc3ncccc3c2=O)c1 [Example 28, 3-Oxo-3H-isothiazolo[5,4-b]pyridine-2-carboxylic acid 2,5-dimethoxy-benzylamide] | 107
5 | Cc1cc(C)c(CNC(=O)n2sc3ncccc3c2=O)c(C)c1 [Example 29, 3-Oxo-3H-isothiazolo[5,4-b]pyridine-2-carboxylic acid 2,4,6-trimethyl-benzylamide] | 4290
6 | COc1ccc(C(C)NC(=O)n2sc3ncccc3c2=O)cc1OC (stereo not drawn) [Example 37, 3-Oxo-3H-isothiazolo[5,4-b]pyridine-2-carboxylic acid [1-(3,4-dimethoxy-phenyl)-ethyl]-amide] | 148
7 | CC(C)C(NC(=O)n1sc2ncccc2c1=O)c1ccc2c(c1)OCCCO2 (stereo not drawn) [Example 46, 3-Oxo-3H-isothiazolo[5,4-b]pyridine-2-carboxylic acid [1-(3,4-dihydro-2H-benzo[b][1,4]dioxepin-7-yl)-2-methyl-propyl]-amide] | 28
8 | COc1cc(CNC(=O)n2sc3ncccc3c2=O)ccc1OCCN(C)C [Example 115, 3-Oxo-3H-isothiazolo[5,4-b]pyridine-2-carboxylic acid 4-(2-dimethylamino-ethoxy)-3-methoxy-benzylamide] | 1380
9 | CC(C)Oc1ncccc1CNC(=O)n1sc2ncccc2c1=O [Example 116, 3-Oxo-3H-isothiazolo[5,4-b]pyridine-2-carboxylic acid (2-isopropoxy-pyridin-3-ylmethyl)-amide] | 1590
10 | CC(NC(=O)n1sc2ncccc2c1=O)c1ccc(N2CCOCC2)cc1 (stereo not drawn) [Example 134, 3-Oxo-3H-isothiazolo[5,4-b]pyridine-2-carboxylic acid [1-(4-morpholin-4-yl-phenyl)-ethyl]-amide] | 391
11 | COCCN1CCC(CNC(=O)n2sc3ncccc3c2=O)CC1 [Example 142, 3-Oxo-3H-isothiazolo[5,4-b]pyridine-2-carboxylic acid [1-(2-methoxy-ethyl)-piperidin-4-ylmethyl]-amide] | 517
12 | COCCOc1ccc([C@@H](C)NC(=O)n2sc3ncccc3c2=O)cc1OC [Example 161, 3-Oxo-3H-isothiazolo[5,4-b]pyridine-2-carboxylic acid {(R)-1-[3-methoxy-4-(2-methoxy-ethoxy)-phenyl]-ethyl}-amide] | 80

Further lines, results first:

Row | IC50 [nM] | SMILES
13 | 69 | O=C(NCc1ccccc1)n1sc2ncccc2c1=O [Example 18, 3-Oxo-3H-isothiazolo[5,4-b]pyridine-2-carboxylic acid benzylamide]
14 | 182 | COc1cccc(CNC(=O)n2sc3ncccc3c2=O)c1 [Example 38, 3-Oxo-3H-isothiazolo[5,4-b]pyridine-2-carboxylic acid 3-methoxy-benzyl-amide]
15 | 120 | Cc1cccc(C)c1CNC(=O)n1sc2ncccc2c1=O [Example 39, 3-Oxo-3H-isothiazolo[5,4-b]pyridine-2-carboxylic acid 2,6-dimethyl-benz-ylamide]
16 | 116 | CSc1ccc(CNC(=O)n2sc3ncccc3c2=O)cc1 [Example 55, 3-Oxo-3H-isothiazolo[5,4-b]pyridine-2-carboxylic acid 4-methylsulfanyl-benzylamide]
17 | 264 | CSc1cccc(CNC(=O)n2sc3ncccc3c2=O)c1 [Example 59, 3-Oxo-3H-isothiazolo[5,4-b]pyridine-2-carboxylic acid 3-methylsulfanyl-benzylamide]
18 | 216 | COCCOc1ccc(CNC(=O)n2sc3ncccc3c2=O)cn1 [Example 114, 3-Oxo-3H-isothiazolo[5,4-b]pyridine-2-carboxylic acid [6-(2-methoxy-ethoxy)-pyridin-3-ylmethyl]-amide]
19 | 230 | CCOc1ccc(CNC(=O)n2sc3ncccc3c2=O)cc1OC [Example 129, 3-Oxo-3H-isothiazolo[5,4-b]pyridine-2-carboxylic acid 4-ethoxy-3-meth-oxy-benzylamide]
20 | 85 | CN(C)Cc1ccc(CNC(=O)n2sc3ncccc3c2=O)cc1 [Example 130, 3-Oxo-3H-isothiazolo[5,4-b]pyridine-2-carboxylic acid 4-dimethylamino-methyl-benzylamide]
21 | 1580 | Cc1ccccc1CNC(=O)n1sc2ncccc2c1=O [Example 156, 3-Oxo-3H-isothiazolo(5,4-b]pyridine-2-carboxylic acid 2-methyl-benzyl-amide]
